Results from the NIST ThermoML archive (doi:10.1021/je700152c).
Numbers after ± are expanded uncertainties.

Experiment: molar heat capacity at saturation pressure

CCCCn1cc[n+](C)c1.Cc1ccc(S(=O)(=O)[O-])cc1 [1-butyl-3-methylimidazolium tosylate]
Details	molar heat capacity [J/K/mol]
5.19 K, Crystal 2	2.822 ± 0.12
5.39 K, Crystal 2	3.132 ± 0.12
5.69 K, Crystal 2	3.579 ± 0.14
5.99 K, Crystal 2	4.042 ± 0.15
6.33 K, Crystal 2	4.588 ± 0.16
6.71 K, Crystal 2	5.224 ± 0.18
7.1 K, Crystal 2	5.913 ± 0.2
7.49 K, Crystal 2	6.618 ± 0.21
7.88 K, Crystal 2	7.372 ± 0.23
8.27 K, Crystal 2	8.155 ± 0.25
8.67 K, Crystal 2	8.98 ± 0.27
9.06 K, Crystal 2	9.831 ± 0.29
9.46 K, Crystal 2	10.7 ± 0.31
9.86 K, Crystal 2	11.58 ± 0.33
10.37 K, Crystal 2	12.77 ± 0.35
10.99 K, Crystal 2	14.2 ± 0.38
11.62 K, Crystal 2	15.75 ± 0.41
12.24 K, Crystal 2	17.23 ± 0.44
12.87 K, Crystal 2	18.81 ± 0.47
13.5 K, Crystal 2	20.4 ± 0.5
14.13 K, Crystal 2	22.01 ± 0.53
14.77 K, Crystal 2	23.69 ± 0.56
15.52 K, Crystal 2	25.71 ± 0.59
16.38 K, Crystal 2	28.11 ± 0.62
17.25 K, Crystal 2	30.43 ± 0.65
18.11 K, Crystal 2	32.69 ± 0.68
18.98 K, Crystal 2	34.95 ± 0.71
19.85 K, Crystal 2	37.28 ± 0.74
21.02 K, Crystal 2	40.42 ± 0.78
22.47 K, Crystal 2	44.36 ± 0.81
23.94 K, Crystal 2	48.42 ± 0.84
25.4 K, Crystal 2	52.37 ± 0.87
26.86 K, Crystal 2	56.28 ± 0.93
27.91 K, Crystal 2	59.01 ± 0.93
29.13 K, Crystal 2	62.18 ± 0.93
30.61 K, Crystal 2	65.96 ± 0.81
32.24 K, Crystal 2	70.12 ± 0.87
34.04 K, Crystal 2	74.47 ± 0.93
35.85 K, Crystal 2	78.78 ± 0.96
37.65 K, Crystal 2	82.79 ± 0.99
39.46 K, Crystal 2	86.82 ± 1.1
41.36 K, Crystal 2	90.86 ± 1.1
43.36 K, Crystal 2	95.05 ± 1.1
45.37 K, Crystal 2	99.18 ± 1.2
47.37 K, Crystal 2	103.21 ± 1.2
49.38 K, Crystal 2	107.12 ± 1.2
51.39 K, Crystal 2	110.88 ± 1.3
53.4 K, Crystal 2	114.57 ± 1.3
55.41 K, Crystal 2	118.11 ± 1.4
57.43 K, Crystal 2	121.56 ± 1.4
59.46 K, Crystal 2	124.97 ± 1.5
61.48 K, Crystal 2	128.2 ± 1.5
63.5 K, Crystal 2	131.49 ± 1.5
65.48 K, Crystal 2	134.6 ± 1.6
67.5 K, Crystal 2	137.79 ± 1.6
69.52 K, Crystal 2	140.83 ± 1.6
71.55 K, Crystal 2	143.85 ± 1.6
73.58 K, Crystal 2	146.89 ± 1.7
75.61 K, Crystal 2	149.84 ± 1.7
77.64 K, Crystal 2	152.66 ± 1.7
78.3 K, Crystal 2	153.84 ± 1.7
78.41 K, Crystal 2	154.03 ± 1.8
78.68 K, Metastable crystal	155.18 ± 1.8
79.68 K, Crystal 2	155.55 ± 1.8
80.29 K, Crystal 2	156.42 ± 1.8
80.4 K, Crystal 2	156.6 ± 1.8
80.63 K, Crystal 2	156.82 ± 1.8
80.67 K, Metastable crystal	157.91 ± 1.8
81.72 K, Crystal 2	158.34 ± 1.8
82.14 K, Crystal 2	158.9 ± 1.8
82.25 K, Crystal 2	158.9 ± 1.8
82.53 K, Metastable crystal	160.36 ± 1.8
82.63 K, Crystal 2	159.37 ± 1.8
83.76 K, Crystal 2	161.26 ± 1.8
84.01 K, Crystal 2	161.35 ± 1.8
84.11 K, Crystal 2	161.51 ± 1.8
84.39 K, Metastable crystal	163.15 ± 1.9
84.49 K, Crystal 2	161.88 ± 1.8
85.88 K, Crystal 2	163.77 ± 1.9
85.98 K, Crystal 2	164.02 ± 1.9
86.26 K, Metastable crystal	165.85 ± 1.9
86.36 K, Crystal 2	164.39 ± 1.9
87.76 K, Crystal 2	166.29 ± 1.9
87.86 K, Crystal 2	166.47 ± 1.9
88.14 K, Metastable crystal	168.4 ± 1.9
88.24 K, Crystal 2	166.85 ± 1.9
89.65 K, Crystal 2	168.77 ± 1.9
89.74 K, Crystal 2	168.83 ± 1.9
90.02 K, Metastable crystal	171.1 ± 1.9
90.12 K, Crystal 2	169.39 ± 1.9
91.54 K, Crystal 2	171.25 ± 1.9
91.63 K, Crystal 2	171.32 ± 1.9
91.92 K, Metastable crystal	173.77 ± 1.9
92.02 K, Crystal 2	171.84 ± 1.9
93.45 K, Crystal 2	173.71 ± 1.9
93.54 K, Crystal 2	173.8 ± 1.9
93.82 K, Metastable crystal	176.53 ± 1.9
93.92 K, Crystal 2	174.27 ± 1.9
95.36 K, Crystal 2	176.16 ± 1.9
95.45 K, Crystal 2	176.25 ± 1.9
95.72 K, Metastable crystal	179.17 ± 2
95.83 K, Crystal 2	176.69 ± 1.9
97.28 K, Crystal 2	178.64 ± 2
97.37 K, Crystal 2	178.7 ± 2
97.64 K, Metastable crystal	181.78 ± 2
97.75 K, Crystal 2	179.08 ± 2
99.21 K, Crystal 2	181.03 ± 2
99.29 K, Crystal 2	181.06 ± 2
99.55 K, Metastable crystal	184.48 ± 2
99.67 K, Crystal 2	181.44 ± 2
101.08 K, Crystal 2	183.3 ± 2
101.16 K, Crystal 2	183.36 ± 2
101.42 K, Metastable crystal	187.02 ± 2
101.54 K, Crystal 2	183.8 ± 2
102.89 K, Crystal 2	185.56 ± 2
102.98 K, Crystal 2	185.56 ± 2
103.22 K, Metastable crystal	189.6 ± 2
103.36 K, Crystal 2	186.06 ± 2
104.71 K, Crystal 2	187.86 ± 2
104.79 K, Crystal 2	187.86 ± 2
105.03 K, Metastable crystal	192.05 ± 2.1
105.18 K, Crystal 2	188.27 ± 2
106.53 K, Crystal 2	190.03 ± 2.1
106.61 K, Crystal 2	190.07 ± 2.1
106.84 K, Metastable crystal	194.54 ± 2.1
107 K, Crystal 2	190.5 ± 2.1
108.37 K, Crystal 2	192.21 ± 2.1
108.44 K, Crystal 2	192.24 ± 2.1
108.66 K, Metastable crystal	197.08 ± 2.1
108.83 K, Crystal 2	192.7 ± 2.1
110.2 K, Crystal 2	194.41 ± 2.1
110.27 K, Crystal 2	194.41 ± 2.1
110.48 K, Metastable crystal	199.56 ± 2.2
110.67 K, Crystal 2	194.88 ± 2.1
112.03 K, Crystal 2	196.58 ± 2.1
112.1 K, Crystal 2	196.52 ± 2.1
112.31 K, Metastable crystal	201.92 ± 2.2
112.5 K, Crystal 2	197.14 ± 2.1
113.87 K, Crystal 2	198.73 ± 2.1
113.94 K, Crystal 2	198.82 ± 2.1
114.13 K, Metastable crystal	204.5 ± 2.2
114.34 K, Crystal 2	199.29 ± 2.1
115.71 K, Crystal 2	200.99 ± 2.2
115.78 K, Crystal 2	201.09 ± 2.2
115.96 K, Metastable crystal	207.01 ± 2.2
116.18 K, Crystal 2	201.52 ± 2.2
117.56 K, Crystal 2	203.23 ± 2.2
117.62 K, Crystal 2	203.17 ± 2.2
117.79 K, Metastable crystal	209.47 ± 2.3
118.02 K, Crystal 2	203.66 ± 2.2
119.41 K, Crystal 2	205.4 ± 2.2
119.46 K, Crystal 2	205.31 ± 2.2
119.62 K, Metastable crystal	212.17 ± 2.3
119.87 K, Crystal 2	205.87 ± 2.2
121.26 K, Crystal 2	207.48 ± 2.2
121.3 K, Crystal 2	207.51 ± 2.2
121.45 K, Metastable crystal	214.65 ± 2.3
121.71 K, Crystal 2	208.04 ± 2.2
123.11 K, Crystal 2	209.71 ± 2.3
123.16 K, Crystal 2	209.78 ± 2.3
123.28 K, Metastable crystal	217.2 ± 2.3
123.56 K, Crystal 2	210.24 ± 2.3
124.97 K, Crystal 2	211.95 ± 2.3
